Measured values: US11987645B2, “Peptide for treating rheumatoid arthritis and use thereof” (SEOUL NATIONAL UNIVERSITY R&DB FOUNDATION, priority 2018, dated 2024)

Assays:
[1] = test system: peripheral blood mononuclear cells obtained from rheumatoid arthritis patients; experiment: Inflammatory cytokine secretion after treating peripheral blood mononuclear cells of rheumatoid arthritis patients with apoB100-derived peptides #1 to #5; type: cell-based, human; details: PBMC of rheumatoid arthritis patients; control non-binding peptide (NBP); FIG. 8
Procedure: Thereafter, peripheral blood mononuclear cells obtained from the healthy control and rheumatoid arthritis patients were treated with the peptides #1 to #5 (which are named apoB100 #1, apo100 #2, apoB100 #3, apoB100 #4, and apoB100 #5, respectively), and changes in the secretion of IL-1β, IL-6 and TNF-α were compared. Meanwhile, a non-binding peptide treated group (NBP) was determined as the control group, and the results of this example are indicated as the mean values of the secretion levels for each six of rheumatoid arthritis patients and healthy individuals.

[2] = test system: peripheral blood cells derived from rheumatoid arthritis patients; experiment: Example 3-1: inflammatory cytokine secretion in peripheral blood cells derived from rheumatoid arthritis patients; type: cell-based, human; details: FIG. 10; for secretion level of IL-1β / secretion level of IL-6 / secretion level of TNF-α: peripheral blood cells of rheumatoid arthritis patients, control NBP
Procedure: After peripheral blood cells derived from rheumatoid arthritis patients were treated with apoB100 #1, apoB100 #3, and apoB100 #5, changes in the secretion of IL-1β, IL-6 and TNF-α were identified. A non-binding peptide treated group (NBP) was determined as the control group.

[3] = test system: K/B×N rheumatoid arthritis animal model; experiment: Example 3-2: K/B×N rheumatoid arthritis animal model (K/B×N serum transfer arthritis mouse); type: in vivo; details: subcutaneous injection to the affected region; K/B×N serum and apoB induced; FIG. 11
Excerpt: K/B×N rheumatoid arthritis animal model (K/B×N serum transfer arthritis mouse) was established by inducing moderate rheumatoid arthritis by administering K/B×N serum and apoB to the mouse, and peptides for inhibiting the secretion of inflammatory cytokine were subcutaneously injected to the affected region of the animal model. Afterwards, changes in the ankle thickness and arthritis score resulting after peptide injection were identified. In addition, under the same conditions as described above, changes in the synovial inflammation, bone erosion, cartilage damage and leukocyte infiltration were compared. Meanwhile, groups treated with K/B×N serum and apoB only were determined as control groups, and groups treated with K/B×N serum and apoB, and a non-binding peptide treated group (NBP) were determined as comparison groups.

[4] = test system: peripheral blood mononuclear cells isolated from rheumatoid arthritis patients; experiment: Inflammatory cytokine secretion after treating peripheral blood mononuclear cells of rheumatoid arthritis patients with apoB100; type: cell-based, human
Excerpt: In this example, in order to identify the relation between rheumatoid arthritis and ENO1 expression on peripheral blood mononuclear cells, the ENO1 expression thereof was observed. In addition, it was attempted to identify the effect of binding ENO1 (α-enolase) to apolipoprotein B100 (apoB100) isolated from a rheumatoid arthritis patient and selected as an ENO1 (α-enolase) binding ligand on the secretion of inflammatory cytokine in the peripheral blood of the rheumatoid arthritis patient through proteomic analysis using immunoprecipitation (IP)/mass spectroscopy (MS). In detail, after ENO1 immunoblotting was performed on mononuclear cells obtained from the rheumatoid arthritis patient and peripheral blood mononuclear cells were treated with apoB100, changes in the secretion of IL-1β, IL-6 and TNF-α were compared. Meanwhile, a group in which cells isolated from healthy individuals are used (HC: healthy control) was determined as the control group.
Accordingly, in this example, it was additionally verified whether the binding of ENO1 and apoB100 crucially affected inflammation responses due to rheumatoid arthritis. […] In addition, since LDL existing in vivo in a state in which it binds to apoB100 protein may potentially involve the inflammation responses, LDLR knockout mouse and C57BL/6 wild-type mouse control group were treated with the serum of K/B×N mouse (referred to as K/B×N serum, hereinafter) and ApoB100, and resulting changes in vivo were compared. Meanwhile, addition of K/B×N mouse serum functions to induce rheumatoid arthritis through deposition of autoantibodies existing in the K/B×N serum, and is one of conventional techniques for manufacturing rheumatoid arthritis animal models by autoimmune responses.

ENO1 (α-enolase) = ENO1 (α-enolase) (Homo sapiens, UniProt P06733); experiment: ENO1-apoB100 binding by immunoblotting, confocal microscopy, BIACORE system and ELISA assay; details: ELISA, FIG. 3
[5] = RA patient mononuclear cells treated with apoB100, compared to healthy control group, FIG. 2

Sequence of ENO1 (α-enolase) (P06733 whole entry): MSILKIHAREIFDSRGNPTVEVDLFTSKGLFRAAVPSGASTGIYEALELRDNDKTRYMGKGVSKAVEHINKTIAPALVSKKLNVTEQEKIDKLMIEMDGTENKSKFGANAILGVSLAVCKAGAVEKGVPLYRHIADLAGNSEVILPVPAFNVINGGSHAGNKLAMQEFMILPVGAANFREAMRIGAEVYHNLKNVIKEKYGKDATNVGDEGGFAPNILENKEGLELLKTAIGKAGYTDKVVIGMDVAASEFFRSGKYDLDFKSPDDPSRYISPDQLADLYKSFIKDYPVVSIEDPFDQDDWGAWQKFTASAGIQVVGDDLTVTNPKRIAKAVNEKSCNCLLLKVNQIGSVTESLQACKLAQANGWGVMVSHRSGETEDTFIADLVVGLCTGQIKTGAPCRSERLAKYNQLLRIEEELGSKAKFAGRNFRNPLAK

ENO1-apoB100 binding (ENO1 (α-enolase))	Substance	secretion level of IL-1β [1]	secretion level of IL-6 [1]	secretion level of TNF-α [1]	secretion level of IL-1β [2]	secretion level of IL-6 [2]	secretion level of TNF-α [2]	ankle thickness [3]	arthritis score [3]	treatment efficacy (decrease of cytokine secretion) compared among the peptides ([2]; among apoB100 #1, #3 and #5)	secretion level of inflammatory cytokines ([4]; ENO1 expression of PBMC inhibited with ENO1 siRNA, then apoB100 treatment, FIG. 4)	secretion level of IL-1β [4, 5]	secretion level of IL-6 [4, 5]	secretion level of TNF-α [4, 5]
–	AICKEQHLFLPF (peptide #1) [apoB100 #1]	decreased	decreased	decreased	significantly decreased	significantly decreased	significantly decreased	significantly decreased	significantly decreased	–	–	–	–	–
–	CKEQHLFLPFSY (peptide #2) [apoB100 #2]	markedly increased	markedly increased	markedly increased	–	–	–	–	–	–	–	–	–	–
–	KNKYGMVAQVTQ (peptide #4) [apoB100 #4]	markedly increased	markedly increased	markedly increased	–	–	–	–	–	–	–	–	–	–
–	SYKNKYGMVAQV (peptide #3) [apoB100 #3]	decreased	decreased	decreased	significantly decreased	significantly decreased	significantly decreased	significantly decreased	significantly decreased	highest	–	–	–	–
–	TKKMGLAFESTK (peptide #5) [apoB100 #5]	decreased	decreased	decreased	significantly decreased	significantly decreased	significantly decreased	significantly decreased	significantly decreased	–	–	–	–	–
relatively strong binding	apolipoprotein B100 [apoB100]	–	–	–	–	–	–	–	–	–	an increased secretion level of inflammatory cytokines was not observed	markedly increased	markedly increased	markedly increased
